The record followed here is the supplement of paper PMC10307832.

Common to all, as to assay: relative viability (nuclei count vs DMSO), 5 days (fraction); higher = more cells survive
Compound in test [1]: CC1=CC(=C(N1C2=CC=C(C=C2)Cl)C)C(=O)CN3CCCCC3 [IU1-47] + Cc1nc(Nc2ncc(C(=O)Nc3c(C)cccc3Cl)s2)cc(N2CCN(CCO)CC2)n1 [Dasatinib] (partner 0.075 µM)
The essentials:
(§1)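 Cells from lung cancer lines were seeded into 1536-well plates and, one day later, dosed by pin tool. Treatments were either a single drug or a fixed dose of an anchor drug with five library-drug doses (not always all listed) in √10 steps. After 5 days, nuclei were stained in a one-step fixation (final 0.05% Triton X-100, 1% formaldehyde, 1 ug/ml Hoechst) and counted on 4× images, and relative viability is the treated-to-vehicle nuclei ratio, as the median of duplicate plates.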

Compound in test [2]: Cc1nc(C(=O)NCC(=O)O)c(O)c2ccc(Oc3ccccc3)cc12 [FG-4592] + CC1(C)CCC(c2ccc(Cl)cc2)=C(CN2CCN(c3ccc(C(=O)NS(=O)(=O)c4ccc(N[C@H](CCN5CCOCC5)CSc5ccccc5)c(S(=O)(=O)C(F)(F)F)c4)cc3)CC2)C1 [Navitoclax] (partner 0.5 µM)
The method, boiled down: as §1

Compound in test [3]: Cc1nc(C(=O)NCC(=O)O)c(O)c2ccc(Oc3ccccc3)cc12 [FG-4592] + CC(=O)Nc1cccc(-n2c(=O)n(C3CC3)c(=O)c3c(Nc4ccc(I)cc4F)n(C)c(=O)c(C)c32)c1 [Trametinib] (partner 0.02 µM)
The essentials:
as §1

Compound in test [4]: Cc1nc(C(=O)NCC(=O)O)c(O)c2ccc(Oc3ccccc3)cc12 [FG-4592] + COc1cccc2cc(-c3nc([C@H]4CC[C@H](C(=O)O)CC4)n4ncnc(N)c34)[nH]c12 [OSI-027] (partner 0.5 µM)
The method, boiled down:
as §1

For UMC-11, the relative viability in test [1] (first compound 0.08 µM) turned out to be 0.429; in test [1] (first compound 0.253 µM) it was 0.423; in test [1] (first compound 0.8 µM), 0.572; in test [1] (first compound 2.53 µM), 0.388; in test [1] (first compound 8 µM), 0.341; in test [2] (first compound 0.08 µM), 0.391. Moreover, the relative viability in test [2] (first compound 0.253 µM) stood at 0.321; in test [2] (first compound 0.8 µM), 0.29; in test [2] (first compound 2.53 µM), 0.312; in test [2] (first compound 8 µM) it was 0.274; in test [3] (first compound 0.08 µM), 0.626; in test [3] (first compound 0.253 µM), 0.697. Also, the relative viability in test [3] (first compound 0.8 µM) worked out at 0.504; in test [3] (first compound 2.53 µM), 0.528; in test [3] (first compound 8 µM), 0.452; in test [4] (first compound 0.08 µM) it was 0.466; in test [4] (first compound 0.253 µM) it was 0.529; in test [4] (first compound 0.8 µM), 0.498. Further, the relative viability in test [4] (first compound 2.53 µM) worked out at 0.461; in test [4] (first compound 8 µM), 0.441.
